Consider two sequences from paper PMC7413254 (Nature Communications, 2020).

Holding throughout (assay type): cell-based
In assay [1] the target is T1, PfCRT^Dd2 (Plasmodium falciparum, UniProt Q9N623, A220S/I356T/K76T/M74I/N326S/N75E/Q271E/R371I). The assay is described as follows: [3H]CQ uptake into Xenopus oocytes, cis-inhibition by unlabelled solute. As to conditions: PfCRTDd2 oocytes, background [3H]CQ accumulation subtracted, normalised to oocyte type control. The method, boiled down:
(§1)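 ND96, pH 5.5, 1.5 h, 27.5 °C; uptake direction acidic outside → oocyte cytosol, mimicking efflux from digestive vacuole. Ice-cold wash stop, 10% SDS lysis, scintillation counting. Ten oocytes/treatment, ≥4 independent experiments.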

Assay [2] addresses T2, PfCRT^Ecu1110 (Plasmodium falciparum, UniProt Q9N623, A220S/I356L/K76T/N326D). The description is as above. The settings on record: PfCRTEcu1110 oocytes, background [3H]CQ accumulation subtracted, normalised to oocyte type control. Put shortly: as §1
Assay [3] addresses T1, PfCRT^Dd2. The assay is described as follows: cell-based. As to conditions: PfCRTDd2 oocytes, normalised to oocyte type control. The method, boiled down:
(§2)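 Oocytes (ten per treatment, ≥4 independent frogs/days) were preloaded by injecting VF-6 in 25 nL ND96 at pH 5.0, 5.5, 6.0 or 7.0, or Na^+-free choline buffer, then uptake run 1.5 h, 27.5 °C, ND96 pH 5.5 by default. Internal concentrations assumed ~400 nL oocyte volume.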

A further assay addresses PfCRT^3D7 (Plasmodium falciparum, UniProt Q8IBZ9). The assay is described as follows: cell-based. As to conditions: PfCRT3D7 oocytes, normalised to oocyte type control. The method, boiled down:
as §2

The target in assay [4] is T2, PfCRT^Ecu1110. The assay is described as follows: cell-based. The settings on record: PfCRTEcu1110 oocytes, normalised to oocyte type control. Put shortly:
as §2

[5] abbreviates: [test solute]i = 5 mM (intracellular).
Where [6] appears, read: [test solute]i = 45 mM (intracellular; 30 mM for some solutes due to solubility).

Sequence of PfCRT^3D7 (Q8IBZ9 59-398): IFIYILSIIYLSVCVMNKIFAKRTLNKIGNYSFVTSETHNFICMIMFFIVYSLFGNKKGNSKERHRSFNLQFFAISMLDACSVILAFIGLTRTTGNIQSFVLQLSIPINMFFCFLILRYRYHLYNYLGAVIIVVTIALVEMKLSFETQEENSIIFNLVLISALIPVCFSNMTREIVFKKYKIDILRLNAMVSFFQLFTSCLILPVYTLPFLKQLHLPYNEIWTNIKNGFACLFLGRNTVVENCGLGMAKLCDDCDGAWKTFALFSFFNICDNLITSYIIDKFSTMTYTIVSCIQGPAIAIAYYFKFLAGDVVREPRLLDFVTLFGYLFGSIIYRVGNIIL
T1 sequence (Q9N623 whole entry A220S/I356T/K76T/M74I/N326S/N75E/Q271E/R371I): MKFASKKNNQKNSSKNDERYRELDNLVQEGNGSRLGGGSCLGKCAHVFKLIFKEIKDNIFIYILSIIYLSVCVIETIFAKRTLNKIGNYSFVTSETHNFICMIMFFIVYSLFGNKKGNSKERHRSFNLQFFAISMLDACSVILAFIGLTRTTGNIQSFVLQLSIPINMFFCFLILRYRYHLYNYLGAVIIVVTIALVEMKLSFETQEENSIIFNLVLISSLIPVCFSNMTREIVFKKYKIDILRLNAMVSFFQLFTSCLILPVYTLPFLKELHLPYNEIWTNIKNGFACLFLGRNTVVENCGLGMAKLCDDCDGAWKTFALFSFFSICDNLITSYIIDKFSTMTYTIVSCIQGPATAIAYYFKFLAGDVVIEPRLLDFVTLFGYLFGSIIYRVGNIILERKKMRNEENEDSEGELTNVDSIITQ
T2 sequence (Q9N623 whole entry A220S/I356L/K76T/N326D): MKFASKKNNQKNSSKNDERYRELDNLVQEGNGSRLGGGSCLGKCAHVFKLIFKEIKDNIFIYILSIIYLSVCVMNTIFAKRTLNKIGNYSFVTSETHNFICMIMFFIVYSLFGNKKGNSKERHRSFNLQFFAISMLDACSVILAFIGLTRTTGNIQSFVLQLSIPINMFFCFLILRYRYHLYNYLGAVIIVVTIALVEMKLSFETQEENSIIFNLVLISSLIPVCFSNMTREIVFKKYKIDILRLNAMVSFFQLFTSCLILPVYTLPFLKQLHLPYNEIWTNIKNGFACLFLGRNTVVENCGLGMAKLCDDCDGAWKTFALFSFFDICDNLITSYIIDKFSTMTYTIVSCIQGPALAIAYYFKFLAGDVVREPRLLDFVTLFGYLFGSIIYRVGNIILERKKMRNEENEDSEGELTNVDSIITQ

Consider LHVDPENF [LF-8], for which the results for the “PfCRT-mediated [3H]CQ transport, cis-inhibition (% PfCRTDd2 control)” value on PfCRT^Dd2 [1] ([test solute] = 0.5 mM), on PfCRT^Dd2 [1] ([test solute] = 1 mM) and at PfCRT^Dd2 [1] ([test solute] = 2 mM) were 37 ± 2.0 % PfCRTDd2 control, 21 ± 0.5 % PfCRTDd2 control and 11 ± 0.2 % PfCRTDd2 control, respectively. Further, the entries for the “PfCRT-mediated [3H]CQ transport, cis-inhibition (% PfCRTEcu1110 control)” value at PfCRT^Ecu1110 [2] ([test solute] = 0.5 mM), at PfCRT^Ecu1110 [2] ([test solute] = 1 mM) and at PfCRT^Ecu1110 [2] ([test solute] = 2 mM) were 31 ± 1.1 % PfCRTEcu1110 control, 22 ± 2.0 % PfCRTEcu1110 control and 11 ± 0.1 % PfCRTEcu1110 control, respectively. The “PfCRT-mediated [3H]CQ transport, trans-stimulation (% PfCRTDd2 control)” value on PfCRT^Dd2 [3] (setting [5]) came out at 99 ± 3.1 % PfCRTDd2 control; on PfCRT^Dd2 [3] (setting [6]), 98 ± 2.3 % PfCRTDd2 control. For the same sequence, the “PfCRT-mediated [3H]CQ transport, trans-stimulation (% PfCRT3D7 control)” value on PfCRT^3D7 (setting [5]) is 97 ± 2.2 % PfCRT3D7 control; at PfCRT^3D7 (setting [6]), 98 ± 4.2 % PfCRT3D7 control. In addition, the “PfCRT-mediated [3H]CQ transport, trans-stimulation (% PfCRTEcu1110 control)” value at PfCRT^Ecu1110 [4] (setting [5]) stood at 96 ± 2.1 % PfCRTEcu1110 control; on PfCRT^Ecu1110 [4] (setting [6]), 95 ± 3.2 % PfCRTEcu1110 control.
Regarding LSDLHAHK [LK-8], the “PfCRT-mediated [3H]CQ transport, cis-inhibition (% PfCRTDd2 control)” value on PfCRT^Dd2 [1] ([test solute] = 0.5 mM) stood at 55 ± 2.3 % PfCRTDd2 control; on PfCRT^Dd2 [1] ([test solute] = 1 mM), 51 ± 0.1 % PfCRTDd2 control; on PfCRT^Dd2 [1] ([test solute] = 2 mM), 25 ± 0.3 % PfCRTDd2 control. For the same sequence, the “PfCRT-mediated [3H]CQ transport, cis-inhibition (% PfCRTEcu1110 control)” value at PfCRT^Ecu1110 [2] ([test solute] = 0.5 mM) was found to be 62 ± 3.1 % PfCRTEcu1110 control; at PfCRT^Ecu1110 [2] ([test solute] = 1 mM) it was 48 ± 2.2 % PfCRTEcu1110 control; at PfCRT^Ecu1110 [2] ([test solute] = 2 mM), 39 ± 2.4 % PfCRTEcu1110 control. Besides, the “PfCRT-mediated [3H]CQ transport, trans-stimulation (% PfCRTDd2 control)” value at PfCRT^Dd2 [3] (setting [5]) is recorded as 98 ± 3.3 % PfCRTDd2 control; on PfCRT^Dd2 [3] (setting [6]), 97 ± 3.1 % PfCRTDd2 control. The “PfCRT-mediated [3H]CQ transport, trans-stimulation (% PfCRT3D7 control)” value on PfCRT^3D7 (setting [5]) worked out at 98 ± 3.4 % PfCRT3D7 control; at PfCRT^3D7 (setting [6]) it was 96 ± 1.3 % PfCRT3D7 control. The “PfCRT-mediated [3H]CQ transport, trans-stimulation (% PfCRTEcu1110 control)” value on PfCRT^Ecu1110 [4] (setting [5]) came to 97 ± 1.4 % PfCRTEcu1110 control; on PfCRT^Ecu1110 [4] (setting [6]), 98 ± 3.4 % PfCRTEcu1110 control.
